What was measured:
[1] = target: T1, angiotensin-converting enzyme (ACE) (Rattus norvegicus, UniProt P47820); assay: ACE-inhibitory activity in vivo (pressor response to angiotensin I); settings: 1.0 mg/kg orally, anesthetized normotensive rats; for Duration of action: ACE inhibition; for inhibition at 1 mg/kg: rat, read-out: ACE-inhibitory activity (%), percentage inhibition of ACE-activity in vivo
T1 construct: Normotensive rats were anesthetized with urethane; from tissue; host or cells: endogenous enzyme of the whole living animal (normotensive rats, in vivo)
T1 sequence (P47820 36-1313): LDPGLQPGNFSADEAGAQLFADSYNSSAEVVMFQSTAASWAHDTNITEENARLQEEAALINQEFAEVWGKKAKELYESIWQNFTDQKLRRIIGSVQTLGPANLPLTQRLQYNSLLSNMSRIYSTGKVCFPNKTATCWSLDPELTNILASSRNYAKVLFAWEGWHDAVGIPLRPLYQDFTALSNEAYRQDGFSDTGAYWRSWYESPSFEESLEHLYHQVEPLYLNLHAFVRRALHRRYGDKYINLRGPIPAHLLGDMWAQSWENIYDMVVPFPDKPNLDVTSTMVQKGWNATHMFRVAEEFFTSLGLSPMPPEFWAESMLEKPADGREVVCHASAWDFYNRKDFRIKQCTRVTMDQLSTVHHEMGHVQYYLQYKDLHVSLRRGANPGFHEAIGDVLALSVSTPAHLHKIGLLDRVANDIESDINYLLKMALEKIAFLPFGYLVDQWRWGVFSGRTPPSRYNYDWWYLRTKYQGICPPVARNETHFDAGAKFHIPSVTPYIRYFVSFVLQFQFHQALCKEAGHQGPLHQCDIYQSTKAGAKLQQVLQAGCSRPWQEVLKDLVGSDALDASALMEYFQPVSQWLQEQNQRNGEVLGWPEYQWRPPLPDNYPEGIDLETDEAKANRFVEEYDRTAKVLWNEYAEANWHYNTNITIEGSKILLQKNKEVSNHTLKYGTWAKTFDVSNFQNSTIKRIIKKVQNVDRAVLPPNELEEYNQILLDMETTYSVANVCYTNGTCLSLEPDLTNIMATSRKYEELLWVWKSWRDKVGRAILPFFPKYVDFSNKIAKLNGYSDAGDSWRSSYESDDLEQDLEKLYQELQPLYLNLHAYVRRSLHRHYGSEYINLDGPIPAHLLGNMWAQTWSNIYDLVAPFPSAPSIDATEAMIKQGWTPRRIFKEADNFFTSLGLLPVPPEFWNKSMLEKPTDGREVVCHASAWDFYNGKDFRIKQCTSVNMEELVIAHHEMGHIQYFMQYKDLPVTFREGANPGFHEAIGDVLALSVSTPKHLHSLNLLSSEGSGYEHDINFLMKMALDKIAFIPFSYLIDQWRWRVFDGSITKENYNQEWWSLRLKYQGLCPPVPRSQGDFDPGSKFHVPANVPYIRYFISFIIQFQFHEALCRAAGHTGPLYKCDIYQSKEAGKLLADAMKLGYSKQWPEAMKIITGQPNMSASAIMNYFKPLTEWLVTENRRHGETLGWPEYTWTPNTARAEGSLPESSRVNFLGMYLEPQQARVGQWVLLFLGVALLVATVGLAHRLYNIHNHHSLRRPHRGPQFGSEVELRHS
Protocol: ACE-inhibitory activity in vivo:
Normotensive rats were anesthetized with urethane (1.5 g/kg, s.c.), and agiotensin I (75~300 ng/kg) was injected into the femoral vein of the rates. The pressor response to angiotensin I was measured with a pressure transducer connected to the carotid artery. Then, a test compound was administered orally thereto at a dose of 1.0 mg/kg, and angiotensin I (300 ng/kg) was further injected intravenously at intervals. The ACE-inhibitory activity of the test compound was estimated from the pressor responses to angiotensin I which were obtained before and after oral administration of the test compound.

[2] = tested on: spontaneously hypertensive rats (SHR); assay: Hypotensive activity in SHR; format: in vivo; settings: 50 mg/kg orally; for Decrease in blood pressure (-ΔmmHg): SHR fasted overnight, systolic blood pressure, tail plethysmography
Protocol: Hypotensive activity in SHR:
A test compound suspended in an aqueous carboxymethylcellulose solution was administered orally to spontaneously hypertensive rats (SHR) fasted overnight. The systolic blood pressure of the rats was measured by the tail plethysmographic technique (The Journal of Laboratory and Clicical Medicine 78 (1971), page 957). The hypotensive activity of the test compound was estimated from the decreased level of blood pressure.

[3] = tested on: mice; assay: Toxicity after oral administration to mice; format: in vivo; settings: 3 g/kg orally
Protocol: For example, when (4S)-1-benzyl- 3-[(2S)-3-benzoylthio-2-methylpropionyl]-2-oxo-imidazolidine-4-carboxylic acid was administered orally to mice at a dose of 3 g/kg, no mouse died within 7 days after said administration.

Compound | Duration of action [1] [min] | inhibition at 1 mg/kg ([1]; angiotensin I 300 ng/kg i.v.) [%] | Decrease in blood pressure (-ΔmmHg) [2] [mmHg] | Decrease in blood pressure (-ΔmmHg) ([2]; listed as (4S)-1-benzyl-3-[(2S)-3-benzoylthio-2-methylpropionyl]-2-oxo-imidazolidine-4-car) | Duration of action ([2]; hypotensive activity, SHR, 50 mg/kg) [h] | Duration of action (hours) ([2]; hypotensive activity, SHR, listed as (4S)-1-benzyl-3-[(2S)-3-benzoylthio-2-methylpropionyl]-2-oxo-imidazolidine-4-car, 50 mg/kg) | Mortality within 7 days after administration [3] | ACE-inhibitory activity (%), percentage inhibition of ACE-activity in vivo ([1]; angiotensin I 300 ng/kg i.v.) | Duration of action ([2]; hypotensive activity, SHR) [h]
CCN1C[C@@H](C(=O)O)N(C(=O)[C@H](C)CSC(=O)c2ccccc2)C1=O [C2 H5 C6 H5, (4S)-1-ethyl-3-[(2S)-3-benzoylthio-2-methylpropionyl]-2-oxo-imidazolidine-4-carboxylic acid] | > 120 | 84 | – | – | – | – | – | – | –
C[C@H](CSC(=O)c1ccccc1)C(=O)N1C(=O)N(Cc2ccccc2)C[C@H]1C(=O)O [C6 H5 CH2 C6 H5, (4S)-1-benzyl-3-[(2S)-3-benzoylthio-2-methylpropionyl]-2-oxo-imidazolidine-4-carboxylic acid] | > 120 | 76 | 44 | about 44 mmHg | > 6 | more than 6 hours | no mouse died | – | –
C[C@H](CSC(=O)c1ccccc1)C(=O)N1C(=O)N(C)C[C@H]1C(=O)O [CH3 C6 H5, (4S)-1-methyl-3-[(2S)-3-benzoylthio-2-methylpropionyl]-2-oxo-imidazolidine-4-carboxylic acid] | > 120 | 88 | – | – | – | – | – | about 90% | –
CC(=O)SC[C@@H](C)C(=O)N1C(=O)N(C)C[C@H]1C(=O)O [CH3 CH3, (4S)-1-methyl-3-[(2S)-3-acetylthio-2-methylpropionyl]-2-oxo-imidazolidine-4-carboxylic acid] | > 120 | 67 | 37 | – | – | – | – | – | > 6

From US4380644A, “2-Oxoimidazolidine derivatives” (Tanabe Siyaku Co., Ltd., priority 1980, dated 1983)
